Assays:
26S proteasome = biological target: T1, 26S proteasome (Homo sapiens, UniProt P28072+P28074+Q99436); assay: Proteasome activity assay with cell lysate and fluorogenic substrates; type: biochemical; conditions: cell lysate
T1 construct: endogenous in cells; host or cells: crude cell lysate
T1 sequence (P28074 60-263): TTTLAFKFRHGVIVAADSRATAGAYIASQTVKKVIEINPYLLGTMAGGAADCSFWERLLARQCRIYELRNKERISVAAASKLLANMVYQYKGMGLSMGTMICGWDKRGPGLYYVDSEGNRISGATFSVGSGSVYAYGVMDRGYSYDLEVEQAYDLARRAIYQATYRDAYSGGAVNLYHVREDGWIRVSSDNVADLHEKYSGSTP
T1 sequence (Q99436 44-277): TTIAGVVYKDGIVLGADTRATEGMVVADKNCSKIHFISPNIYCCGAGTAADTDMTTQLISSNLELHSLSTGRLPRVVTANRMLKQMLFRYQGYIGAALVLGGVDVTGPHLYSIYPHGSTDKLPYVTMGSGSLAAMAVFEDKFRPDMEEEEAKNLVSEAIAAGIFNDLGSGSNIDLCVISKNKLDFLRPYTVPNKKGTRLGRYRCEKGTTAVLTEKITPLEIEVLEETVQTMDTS
T1 sequence (P28072 1-239): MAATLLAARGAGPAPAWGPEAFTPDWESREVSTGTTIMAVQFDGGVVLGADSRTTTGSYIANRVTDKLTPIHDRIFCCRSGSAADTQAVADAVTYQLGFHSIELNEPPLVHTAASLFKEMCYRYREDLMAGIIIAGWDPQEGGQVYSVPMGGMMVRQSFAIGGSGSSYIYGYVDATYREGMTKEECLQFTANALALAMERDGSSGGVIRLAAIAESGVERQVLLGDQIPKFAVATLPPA
Procedure: The activity of the 26S proteasome was measured by following steps. Aliquots of 2×10^6 cells were lysed with glass beads (Sigma) at 4° C. in lysis buffer containing 50 mM Tris-HCl (pH 7.5), 5 mM MgCl2, 1 mM DTT and 250 mM sucrose, and the protein concentration of cleared supernatants was measured by BCA protein assay reagent (Pierce). Ten micrograms of total protein was diluted with 26S proteasome assay buffer in a 96-well microtiter plate (BD Falcon), and incubated with fluorogenic substrates including Suc-LLVY-AMC, Z-LLE-AMC, and Ac-RLR-AMC Ac-RLR-AMC (Cayman-U.S.A.) were used to measure chymotrypsin, caspase-, and trypsin-like proteasome activity, respectively. Fluorescence released by AMC fluorescence was monitored on a microplate fluorometer (Biotek instrument-synergy HT) every 5 min at 37° C. for 1 h.

[1] = test system: primary human fibroblast cells; assay: MTT assay of primary human fibroblast cells; type: cell-based; conditions: cells set up at passage 8
From the text: (§1) First, primary human fibroblast cells were divided into two as control and NMDAR added group at the 4th passage and followed under the same condution until the 10th passage.
Cellular senescence is defined as a complete and irreversible loss of replicative capacity in primary somatic cells. (hayflick 1961). Therefore, MTT assay is used to measure cellular metabolic activity as an indicator of cell viability and proliferation in cells set up at passage 8.

[2] = test system: primary human fibroblast cells; assay: SA β-gal staining of primary human fibroblast cells; type: cell-based; conditions: passage 10
From the text: as §1
Therefore cellular senescence were investigated by SA β-gal staining in cells at passage 10.

[3] = test system: primary human fibroblast cells; assay: Nile red staining of lipid droplets in primary fibroblast cells; type: cell-based; conditions: late passage
From the text: In another experiment, the amount of intracellular lipid droplets as indicator of fat metabolism were investigated in senescent cells with nile red staining in cells at the late passage. Nile red is a lipophilic stain which stain intracellular lipid droplets and proteins. Lipid droplets are highly dinamic cellular organelles involved in the storage and the metabolism of neutral lipids.

amyloid = assay: Amyloid staining of mouse tissues; type: in vivo; conditions: mice at 22 months
From the text: In the next study, the effects of NMDAR blocker on amyloid accumulation in brain, liver, and kidney of mice with the presence of memantine and control mice groups at 22 months were investigated by amyloid staining.
(§2) Whole frozen tissues were sectioned with a microtome and fixed in 4% paraformaldehyde, Tissues were washed in PBS and the individual staining methods used in accordance with the manufacturer's recommendations. Total pixels from fluorescence in the images were quantified using Adobe Photoshop software CS2 (Adobe Systems), and normalized to a nuclear stain.

melanin and lipofuscin = assay: Melanin and lipofuscin staining of mouse tissues; type: in vivo; conditions: mice at 22 months
From the text: as §2

[4] = test system: human mesenchymal stem cells; assay: MTT test of mesenchymal stem cells; type: cell-based; conditions: day 21
[5] = cited from earlier work
[6] = human subjects; cited from earlier work
proteasome [7] = biological target: T2, proteasome (Homo sapiens, UniProt P28072+P28074+Q99436); assay: In-Cell Fluorogenic Proteasome Assay, T98G; type: cell-based; design: endogenous in cells; host or cells: T98G (A10), digitonin/Tween-permeabilised whole cells; conditions: whole T98G cell
T2 sequence (P28074 60-263): T1 sequence (P28074 60-263)
T2 sequence (Q99436 44-277): T1 sequence (Q99436 44-277)
T2 sequence (P28072 1-239): T1 sequence (P28072 1-239)
Procedure: (§3) For a 96-well plate format, 8×10^3 cells per well were seeded. 24 hours later medium was changed with NMDAR blocker containing medium. Two hours later 100 μl of 2× flourescence cell buffer: (1 ml 1M tris hcl ph: 7.5, 500 μl 1M KCL, 200 μl […], 200 μl 0.1M MgCL2, 50 μl % 0.2 tween 20, 75 μl digitonin 20 mg/ml in DMSO ChemCruz cat no: sc-280675, 10 μl flourescence substrates including Suc-LLVY-AMC, Z-LLE-AMC, and Ac-RLR-AMC Ac-RLR-AMC, 8.1 ml H2O). After incubation at room temperature for a 5 minutes the flourescence of each sample were measured in a flourescence spectrometer (Biotek instrument-Synergy HT).

proteasome [8] = biological target: T2, proteasome; assay: In-Cell Fluorogenic Proteasome Assay, HepG2; type: cell-based; design: endogenous in cells; host or cells: HepG2 (A9), T98G (A10), digitonin/Tween-permeabilised whole cells; conditions: for trypsin, chemotrypsin and caspase-like proteasome activities: whole HepG2 cell
Procedure: as §3

| Structure (SMILES) | trypsin, chemotrypsin and caspase-like proteasome activity (26S proteasome) | proliferation (MTT assay) [1] | SA β-gal stained cells, control cells compared to treated cells [2] | Nile red flourescence (intracellular lipid droplets) [3] | amount of amyloid in brain tissue (amyloid) | amount of amyloid in liver and kidney (amyloid) | amount of lipofuscin (liver) (melanin and lipofuscin) | amount of melanin (skin) (melanin and lipofuscin) | lifespan of human mesenchymal stem cells (MTT test) [4] | free rat brain concentrations, lower in plasma [5] | CSF concentrations, lower [6] | trypsin, chemotrypsin and caspase-like proteasome activities (proteasome [7]) | chemotrypsin activity of proteasome in the presence of RA190 (proteasome [8]; HepG2) | trypsin, chemotrypsin and caspase-like proteasome activities (proteasome [8]) | chemotrypsin activity of proteasome (proteasome [8]; whole cell, substance alone) |
| --- | --- | --- | --- | --- | --- | --- | --- | --- | --- | --- | --- | --- | --- | --- | --- |
| CC12CC3CC(C)(C1)CC(N)(C3)C2 [memantine, 3,5-dimethyladamantan-1-amine] | no effects | higher | 1.8 fold | more flourescence | most significant difference | statistically significant decrease | statistically decreased | statistically decreased | increase the lifespan | 20-30% | 30-40% | increased | very similar to the ketamin results | increased |  |
| CNC1(c2ccccc2Cl)CCCCC1=O (stereo not drawn) [ketamin, 2-(2-chlorophenyl)-2-(methylamino)-cyclohexanone] | no effects | higher | 2.6 fold | more flourescence |  |  |  |  |  |  |  | increased |  | increased | depending on the amount of the drugs |

Reference: patent US20250161238A1, “NMDAR Antagonists Prevent Ageing and Aging-Associated Conditions and Diseases Through Increasing 20S Proteasome Activity” (priority 2022, published 2025)
